Assay results published in patent EP0183129A1, “Quinolonecarboxylic acid derivatives” (KYORIN PHARMACEUTICAL CO., LTD., priority 1984, dated 1986).
In brackets after ≈: the same amount, converted by molar mass. Where a name gives a salt, the structure may show the parent alone. Read-outs that look alike come from different tables or passages of the source.

Legend:
C. difficile I-E = assay: In vitro antibacterial activity, MIC (standard strain); assay type: cell-based; conditions: Clostridioides difficile; C. difficile I-E; 10^6 cells/ml; standard strain; read-out: MIC
S. pneumoniae 28 = assay: In vitro antibacterial activity, MIC (clinical isolates); assay type: cell-based; conditions: Streptococcus pneumoniae, 10^6 cells/ml, clinical isolate
[1] = Absorption and distribution: concentration in blood and organs after oral administration, bioassay by cup method; assay type: in vivo; conditions: rat, rats, fasted, 10 mg/kg oral, Mean ± S.D. (n=5); for concentration at 0.5 h: 1/2 hr after administration; for concentration at 1 h: 1 hr after administration; for concentration at 2 h: 2 hr after administration; for concentration at 4 h: 4 hr after administration; for concentration at 6 h: 6 hr after administration; for concentration at 8 h: 8 hr after administration
[2] = Urinary and bile excretion after oral administration, bioassay by cup method; assay type: in vivo; conditions: rat, fasted rats, 10 mg/kg oral, Mean ± S.D. (n=5)
M. pneumoniae Mac. = assay: In vitro antibacterial activity against Mycoplasma, MIC; assay type: cell-based; conditions: Mycoplasmoides pneumoniae, 120 h; M. pneumoniae Mac.; no visible growth after incubation for 5 days; read-out: MIC
Text: Experiment-3 In vitro antibacterial activity against Mycoplasma

[3] = kidney, read-out: Concentration in organs: Kidney
[4] = liver, read-out: Concentration in organs: Liver
[5] = lung, read-out: Concentration in organs: Lung
[6] = serum, read-out: Concentration in organs: Serum
[7] = bile 0 ~ 3 hr, read-out: Concentration, bile
[8] = bile 0 ~ 3 hr, read-out: Recovery, bile
[9] = bile 0 ~ 6 hr, read-out: Recovery, bile
[10] = bile 0 ~ 24 hr, read-out: Recovery, bile
[11] = bile 3 ~ 6 hr, read-out: Concentration, bile
[12] = bile 6 ~ 24 hr, read-out: Concentration, bile
[13] = urine 0 ~ 3 hr, read-out: Concentration, urine
[14] = urine 0 ~ 3 hr, read-out: Recovery, urine
[15] = urine 0 ~ 6 hr, read-out: Recovery, urine
[16] = urine 0 ~ 24 hr, read-out: Recovery, urine
[17] = urine 3 ~ 6 hr, read-out: Concentration, urine
[18] = urine 6 ~ 24 hr, read-out: Concentration, urine

Q: With `NCC1CCN(c2c(F)cc3c(=O)c(C(=O)O)cn(C4CC4)c3c2F)C1` (stereo not drawn) [Example 1, 7-(3-Aminomethyl-l-pyrrolidinyl)-l-cyclopropyl-6,8-difluoro-1,4-dihydro-4-oxo-3-quinolinecarboxylic acid hydrochloride] as the compound, how does the MIC (C. difficile I-E) read?
A: 1.56 µg/mL

Q: What about the MIC (S. pneumoniae 28) of the same compound?
A: 0.05 µg/mL

Q: What does the source list for `CCNCC1CCN(c2c(F)cc3c(=O)c(C(=O)O)cn(C4CC4)c3c2F)C1` (stereo not drawn) [Example 2, l-Cyclopropyl-7-(3-ethylaminomethyl-l-pyrrolidinyl)-6,8-difluoro-l,4-dihydro-4-oxo-3-quinolinecarboxylic acid hydrochloride]?
A: concentration at 0.5 h [1, 3]: 8500 ± 310 ng/g; concentration at 1 h [1, 3]: 6720 ± 540 ng/g; concentration at 2 h [1, 3]: 4660 ± 300 ng/g; concentration at 4 h [1, 3]: 2620 ± 590 ng/g; concentration at 6 h [1, 3]: 1860 ± 110 ng/g; concentration at 8 h [1, 3]: 980 ± 220 ng/g; concentration at 0.5 h [1, 4]: 9480 ± 440 ng/g; concentration at 1 h [1, 4]: 6240 ± 530 ng/g; concentration at 2 h [1, 4]: 4320 ± 430 ng/g; concentration at 4 h [1, 4]: 2360 ± 480 ng/g; concentration at 6 h [1, 4]: 1620 ± 290 ng/g; concentration at 8 h [1, 4]: 820 ± 190 ng/g; concentration at 0.5 h [1, 5]: 3840 ± 420 ng/g; concentration at 1 h [1, 5]: 2940 ± 220 ng/g; concentration at 2 h [1, 5]: 1920 ± 330 ng/g; concentration at 4 h [1, 5]: 1120 ± 310 ng/g; concentration at 6 h [1, 5]: 780 ± 190 ng/g; concentration at 8 h [1, 5]: 380 ± 80 ng/g; concentration at 0.5 h [1, 6]: 1470 ± 190 ng/mL; concentration at 1 h [1, 6]: 1300 ± 200 ng/mL; concentration at 2 h [1, 6]: 900 ± 190 ng/mL; concentration at 4 h [1, 6]: 420 ± 150 ng/mL; concentration at 6 h [1, 6]: 260 ± 90 ng/mL; concentration at 8 h [1, 6]: 120 ± 40 ng/mL; concentration at 3 h [2, 7]: 17100 ± 10000 ng/mL; dose excreted at 3 h [2, 8]: 2.4 ± 1.6%; dose excreted at 6 h [2, 9]: 4.3 ± 2.1%; dose excreted at 24 h [2, 10]: 9.7 ± 3.1%; concentration at 6 h [2, 11]: 16100 ± 6200 ng/mL; concentration at 24 h [2, 12]: 10100 ± 2300 ng/mL; concentration at 3 h [2, 13]: 44200 ± 27900 ng/mL; dose excreted at 3 h [2, 14]: 3.5 ± 2%; dose excreted at 6 h [2, 15]: 6.7 ± 4.3%; dose excreted at 24 h [2, 16]: 13.5 ± 4.6%; concentration at 6 h [2, 17]: 115000 ± 61000 ng/mL; concentration at 24 h [2, 18]: 22100 ± 9800 ng/mL; MIC (C. difficile I-E): 0.78 µg/mL; MIC (S. pneumoniae 28): 0.05 µg/mL; MIC (M. pneumoniae Mac.): 0.05 µg/mL

Q: For `CCNCC1CCN(c2cc3c(cc2F)c(=O)c(C(=O)O)cn3C2CC2)C1.Cl` (stereo not drawn) [Example 7, 1-Cyclopropyl-7-(3-ethylaminomethyl-1-pyrrolidinyl)-6-fluoro-1,4-dihydro-4-oxo-3-quinolinecarboxylic acid hydrochloride], which MIC (C. difficile I-E) is on record?
A: 12.5 µg/mL

Q: Which results are given for `CNCC1CCN(c2c(F)cc3c(=O)c(C(=O)O)cn(C4CC4)c3c2F)C1` (stereo not drawn) [Example 8, 1-Cyclopropyl-6,8-difluoro-1,4-dihydro-7-(3-methylaminomethyl-l-pyrrolidinyl)-4-oxo-3-quinolinecarboxylic acid hydrochloride]?
A: MIC (C. difficile I-E): 1.56 µg/mL; MIC (S. pneumoniae 28): 0.05 µg/mL; MIC (M. pneumoniae Mac.): 0.05 µg/mL

Q: For `CNCC1CCN(c2cc3c(cc2F)c(=O)c(C(=O)O)cn3C2CC2)C1` (stereo not drawn) [Example 9, 1-Cyclopropyl-6-fluoro-1,4-dihydro-7-(3-methylaminomethyl-l-pyrrolidinyl)-4-oxo-3-quinolinecarboxylic acid hydrochloride], which MIC (C. difficile I-E) is on record?
A: 12.5 µg/mL

Q: For `CCCNCC1CCN(c2c(F)cc3c(=O)c(C(=O)O)cn(C4CC4)c3c2F)C1` (stereo not drawn) [Example 10, 1-Cyclopropyl-6,8-difluoro-1,4-dihydro-4-oxo-7-(3-n-propylaminomethyl-l-pyrrolidinyl)-3-quinolinecarboxylic acid hydrochloride], which MIC (C. difficile I-E) is on record?
A: 6.25 µg/mL

Q: With `CC(C)NCC1CCN(c2c(F)cc3c(=O)c(C(=O)O)cn(C4CC4)c3c2F)C1.Cl` (stereo not drawn) [Example 11, 1-Cyclopropyl-6,8-difluoro-1,4-dihydro-7-(3-isopropylaminomethyl-1-pyrrolidinyl)-4-oxo-3-quinolinecarboxylic acid hydrochloride] as the compound, how does the MIC (C. difficile I-E) read?
A: 3.13 µg/mL

Q: With `CNCC1CCN(c2c(F)cc3c(=O)c(C(=O)O)cn(C4CC4)c3c2Cl)C1` (stereo not drawn) [Example 12, 8-Chloro-l-cyclopropyl-6-fluoro-1,4-dihydro-7-(3-methylaminomethyl-1-pyrrolidinyl)-4-oxo-3-quinolinecarboxylic acid hydrochloride] as the compound, how does the MIC (S. pneumoniae 28) read?
A: 0.05 µg/mL

Q: What about the MIC (M. pneumoniae Mac.) of the same compound?
A: 0.05 µg/mL

Q: Which results are given for `CCNCC1CCN(c2c(F)cc3c(=O)c(C(=O)O)cn(C4CC4)c3c2Cl)C1` (stereo not drawn) [Example 13, 8-Chloro-l-cyclorpropyl-6-fluoro-1,4-dihydro-7-(3-ethylaminomethyl-l-pyrrolidinyl)-4-oxo-3-quinolinecarboxylic acid]?
A: concentration at 0.5 h [1, 3]: 5630 ± 640 ng/g; concentration at 1 h [1, 3]: 4700 ± 600 ng/g; concentration at 2 h [1, 3]: 2810 ± 250 ng/g; concentration at 4 h [1, 3]: 1470 ± 250 ng/g; concentration at 6 h [1, 3]: 840 ± 90 ng/g; concentration at 8 h [1, 3]: 890 ± 400 ng/g; concentration at 0.5 h [1, 4]: 7780 ± 910 ng/g; concentration at 1 h [1, 4]: 5710 ± 630 ng/g; concentration at 2 h [1, 4]: 3140 ± 360 ng/g; concentration at 4 h [1, 4]: 1340 ± 120 ng/g; concentration at 6 h [1, 4]: 860 ± 150 ng/g; concentration at 8 h [1, 4]: 1130 ± 520 ng/g; concentration at 0.5 h [1, 5]: 3170 ± 710 ng/g; concentration at 1 h [1, 5]: 2660 ± 420 ng/g; concentration at 2 h [1, 5]: 1540 ± 210 ng/g; concentration at 4 h [1, 5]: 700 ± 80 ng/g; concentration at 6 h [1, 5]: 420 ± 50 ng/g; concentration at 8 h [1, 5]: 450 ± 150 ng/g; concentration at 0.5 h [1, 6]: 1720 ± 370 ng/mL; concentration at 1 h [1, 6]: 1120 ± 300 ng/mL; concentration at 2 h [1, 6]: 570 ± 80 ng/mL; concentration at 4 h [1, 6]: 230 ± 40 ng/mL; concentration at 6 h [1, 6]: 100 ± 10 ng/mL; concentration at 8 h [1, 6]: 140 ± 80 ng/mL; concentration at 3 h [2, 7]: 36400 ± 9900 ng/mL; dose excreted at 3 h [2, 8]: 4.9 ± 1.5%; dose excreted at 6 h [2, 9]: 6.9 ± 1.4%; dose excreted at 24 h [2, 10]: 12.9 ± 4.9%; concentration at 6 h [2, 11]: 19700 ± 8000 ng/mL; concentration at 24 h [2, 12]: 11300 ± 8300 ng/mL; concentration at 3 h [2, 13]: 36100 ± 9200 ng/mL; dose excreted at 3 h [2, 14]: 2.7 ± 2.1%; dose excreted at 6 h [2, 15]: 4.8 ± 1.8%; dose excreted at 24 h [2, 16]: 7.4 ± 1.5%; concentration at 6 h [2, 17]: 39400 ± 13300 ng/mL; concentration at 24 h [2, 18]: 7600 ± 3600 ng/mL; MIC (S. pneumoniae 28): 0.05 µg/mL (≈ 0.123 µM); MIC (M. pneumoniae Mac.): 0.05 µg/mL (≈ 0.123 µM)

Q: For `NCC1CCN(c2c(F)cc3c(=O)c(C(=O)O)cn(C4CC4)c3c2Cl)C1` (stereo not drawn) [Example 14, 8-Chloro-l-cyclopropyl-6-fluoro-l,4-dihydro-7-(3-aminomethyl-l-pyrrolidinyl)-4-oxo-3-quinolinecarboxylic acid hydrochloride], which MIC (S. pneumoniae 28) is on record?
A: 0.05 µg/mL

Q: Which MIC (C. difficile I-E) does the source give for `CCn1cc(C(=O)O)c(=O)c2cc(F)c(N3CCNCC3)cc21` [NFLX, Norfloxacin, reference compound] here?
A: 50 µg/mL (≈ 157 µM)

Q: And the MIC (S. pneumoniae 28)?
A: 6.25 µg/mL (≈ 19.6 µM)

Q: What about the MIC (M. pneumoniae Mac.) of the same compound?
A: 3.13 µg/mL (≈ 9.8 µM)

Q: Which MIC (M. pneumoniae Mac.) does the source give for `CCNCC1CCN(c2c(F)cc3c(=O)c(C(=O)O)cn(CC)c3c2F)C1` (stereo not drawn) [Ref.1, 1-Ethyl-7-(3-ethylaminomethyl-1-pyrrolidinyl)-6,8-difluoro-1,4-dihydro-4-oxo-3-quinolinecarboxylic acid, reference compound] here?
A: 0.39 µg/mL (≈ 1.03 µM)
